One block for each compound: values may come before it. Calls of active or inactive are those of the source. No cut-off for these calls is given here.
Legend:
[1] = biological target: T1, Protein cereblon/Tyrosine-protein kinase BTK (Homo sapiens, UniProt Q06187+Q96SW2); assay: PROTAC activity at CRBN/BTK in human JeKo-1 cells assessed as BTK degradation at 10 nM incubated for 24 hrs by Western blot analysis relative to control; format: cell-based
Target sequence in this assay (Q06187 2-659 limits assumed): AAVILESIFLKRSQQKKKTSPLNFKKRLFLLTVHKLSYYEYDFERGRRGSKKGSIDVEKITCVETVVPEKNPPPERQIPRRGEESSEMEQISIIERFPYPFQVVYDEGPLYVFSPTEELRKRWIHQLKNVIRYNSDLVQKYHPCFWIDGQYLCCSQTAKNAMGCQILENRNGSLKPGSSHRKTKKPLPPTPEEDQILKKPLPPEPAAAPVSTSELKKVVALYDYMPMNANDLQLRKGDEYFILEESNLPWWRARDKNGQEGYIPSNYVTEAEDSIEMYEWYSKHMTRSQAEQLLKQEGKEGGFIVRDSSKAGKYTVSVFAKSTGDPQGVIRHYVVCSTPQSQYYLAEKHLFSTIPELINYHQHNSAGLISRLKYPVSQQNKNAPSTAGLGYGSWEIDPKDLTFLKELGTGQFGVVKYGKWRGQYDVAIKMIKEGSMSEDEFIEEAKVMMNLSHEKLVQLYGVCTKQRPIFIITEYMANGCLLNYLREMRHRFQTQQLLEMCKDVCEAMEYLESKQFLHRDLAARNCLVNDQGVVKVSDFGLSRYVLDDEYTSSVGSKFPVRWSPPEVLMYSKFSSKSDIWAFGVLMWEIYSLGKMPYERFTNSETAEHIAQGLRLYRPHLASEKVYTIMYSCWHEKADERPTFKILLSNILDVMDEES
Target sequence in this assay (Q96SW2 whole entry partner): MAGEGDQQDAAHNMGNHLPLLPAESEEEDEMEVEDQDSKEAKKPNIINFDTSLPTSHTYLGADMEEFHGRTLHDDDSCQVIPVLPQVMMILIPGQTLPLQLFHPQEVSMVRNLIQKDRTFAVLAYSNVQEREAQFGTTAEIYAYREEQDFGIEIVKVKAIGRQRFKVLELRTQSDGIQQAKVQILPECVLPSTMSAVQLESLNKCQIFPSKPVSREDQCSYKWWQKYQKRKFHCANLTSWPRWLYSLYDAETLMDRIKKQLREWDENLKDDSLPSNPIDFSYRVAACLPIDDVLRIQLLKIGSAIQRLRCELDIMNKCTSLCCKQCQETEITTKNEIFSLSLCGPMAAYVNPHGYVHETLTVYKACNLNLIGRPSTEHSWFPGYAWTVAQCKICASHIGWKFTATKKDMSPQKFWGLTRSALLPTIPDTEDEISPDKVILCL

[2] = biological target: T1, Protein cereblon/Tyrosine-protein kinase BTK; assay: PROTAC activity at CRBN/BTK in human JeKo-1 cells assessed as BTK degradation at 30 nM incubated for 24 hrs by Western blot analysis relative to control; format: cell-based
Target sequence in this assay (Q06187 2-659 limits assumed): as the sequence (Q06187 2-659 limits assumed) above
Target sequence in this assay (Q96SW2 whole entry partner): as the sequence (Q96SW2 whole entry partner) above

[3] = biological target: T1, Protein cereblon/Tyrosine-protein kinase BTK; assay: PROTAC activity at CRBN/BTK in human JeKo-1 cells assessed as BTK degradation at 100 nM incubated for 24 hrs by Western blot analysis relative to control; format: cell-based
Target sequence in this assay (Q06187 2-659 limits assumed): as the sequence (Q06187 2-659 limits assumed) above
Target sequence in this assay (Q96SW2 whole entry partner): as the sequence (Q96SW2 whole entry partner) above

[4] = biological target: T1, Protein cereblon/Tyrosine-protein kinase BTK; assay: PROTAC activity at CRBN/BTK in human JeKo-1 cells assessed as BTK degradation incubated for 24 hrs by Western blot analysis; format: cell-based
Target sequence in this assay (Q06187 whole entry): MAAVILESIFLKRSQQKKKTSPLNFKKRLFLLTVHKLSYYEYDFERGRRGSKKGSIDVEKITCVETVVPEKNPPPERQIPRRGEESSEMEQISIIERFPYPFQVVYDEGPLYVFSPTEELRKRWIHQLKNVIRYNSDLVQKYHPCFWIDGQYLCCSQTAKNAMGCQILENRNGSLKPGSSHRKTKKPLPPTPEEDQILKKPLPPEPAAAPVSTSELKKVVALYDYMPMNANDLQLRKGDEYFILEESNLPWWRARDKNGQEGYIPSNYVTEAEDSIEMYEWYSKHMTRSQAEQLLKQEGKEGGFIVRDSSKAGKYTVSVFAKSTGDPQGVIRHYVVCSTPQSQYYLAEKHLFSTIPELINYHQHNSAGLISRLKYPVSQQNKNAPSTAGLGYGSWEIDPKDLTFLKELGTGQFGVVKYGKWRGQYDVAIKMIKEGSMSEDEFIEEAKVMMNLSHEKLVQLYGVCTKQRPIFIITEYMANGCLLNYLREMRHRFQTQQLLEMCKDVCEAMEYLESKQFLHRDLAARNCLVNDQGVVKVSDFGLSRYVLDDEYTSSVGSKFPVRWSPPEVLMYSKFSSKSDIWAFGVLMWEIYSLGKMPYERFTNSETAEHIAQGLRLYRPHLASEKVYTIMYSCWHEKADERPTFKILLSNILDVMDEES
Target sequence in this assay (Q96SW2 whole entry): as the sequence (Q96SW2 whole entry partner) above

[5] = Microsomal stability in human liver microsomes assessed as half life measured up to 60 mins in presence of NADPH by LC-MS/MS analysis; format: ADME, Microsome
[6] = Microsomal stability in human liver microsomes assessed as intrinsic clearance in microsomes measured up to 60 mins in presence of NADPH by LC-MS/MS analysis; format: ADME, Microsome; conditions: read-out: CLH
[7] = Microsomal stability in human liver microsomes assessed as intrinsic clearance in liver measured up to 60 mins in presence of NADPH by LC-MS/MS analysis; format: ADME, Microsome; conditions: read-out: CLH
[8] = Microsomal stability in human liver microsomes assessed as compound remaining measured up to 60 mins in presence of NADPH by LC-MS/MS analysis; format: ADME, Microsome; conditions: read-out: Stability
[9] = Microsomal stability in human liver microsomes assessed as compound remaining measured up to 60 mins by LC-MS/MS analysis; format: ADME, Microsome; conditions: read-out: Stability
[10] = biological target: T1, Protein cereblon/Tyrosine-protein kinase BTK; assay: PROTAC activity at CRBN/BTK in human JeKo-1 cells assessed as BTK degradation up to 100 nM incubated for 24 hrs by Western blot analysis; format: cell-based
Target sequence in this assay (Q06187 2-659 limits assumed): as the sequence (Q06187 2-659 limits assumed) above
Target sequence in this assay (Q96SW2 whole entry partner): as the sequence (Q96SW2 whole entry partner) above

[11] = Cytotoxicity against human TMD8 cells harboring wild-type BTK assessed as inhibition of cell viability incubated for 5 days by CCK8 assay; format: functional, cell-based; conditions: TMD8, 120 h
[12] = Cytotoxicity against human TMD8 cells harboring BTK C481S mutant assessed as inhibition of cell viability incubated for 5 days by CCK8 assay; format: functional, cell-based; conditions: TMD8, 120 h

SMILES: O=C1CCC(N2Cc3cc(N4CCC(CCN5CCC(CC(=O)N6CCN(c7ncnc8[nH]cc(C(=O)c9ccc(Oc%10ccccc%10)cc9Cl)c78)CC6)CC5)CC4)c(F)cc3C2=O)C(=O)N1 (stereo not drawn)
Activity [1]: 65%
Activity [2]: 53%
Activity [3]: 47%

SMILES: O=C1CCC(N2Cc3cc(N4CCC(CCN5CCC(CC(=O)N6CCC(Nc7ncnc8[nH]cc(C(=O)c9ccc(Oc%10ccccc%10)cc9Cl)c78)CC6)CC5)CC4)c(F)cc3C2=O)C(=O)N1 (stereo not drawn)
Activity [1]: 80%
Activity [2]: 90%
Activity [3]: 94%

SMILES: O=C1CCC(N2Cc3cc(N4CCC(CCN5CCC(CC(=O)N[C@@H]6CC[C@H](Nc7ncnc8[nH]cc(C(=O)c9ccc(Oc%10ccccc%10)cc9Cl)c78)C6)CC5)CC4)c(F)cc3C2=O)C(=O)N1 (stereo partly drawn)
Activity [1]: 77%
Activity [2]: 91%
Activity [3]: 88%

SMILES: O=C1CCC(N2Cc3cc(N4CCC(CCN5CCC(CC(=O)N[C@H]6CC[C@@H](Nc7ncnc8[nH]cc(C(=O)c9ccc(F)cc9Cl)c78)CC6)CC5)CC4)c(F)cc3C2=O)C(=O)N1 (stereo partly drawn)
Activity [1]: 11%
Activity [2]: 7%
Activity [3]: 23%

SMILES: O=C1CCC(N2Cc3cc(N4CCC(CCN5CCC(CC(=O)N[C@H]6CC[C@@H](Nc7ncnc8[nH]cc(C(=O)c9ccc(Oc%10ccccc%10)cc9)c78)CC6)CC5)CC4)c(F)cc3C2=O)C(=O)N1 (stereo partly drawn)
Activity [1]: 87%
Activity [2]: 95%
Activity [3]: 96%

SMILES: NC(=O)c1ncc(N2CCCCC2)nc1Nc1ccc(C2CCN(C[C@@H]3CCN(c4ccc5c(c4)C(=O)N(C4CCC(=O)NC4=O)C5=O)C3)CC2)cc1 (stereo partly drawn)
IC50 [11]: 8.8 nM
IC50 [12]: 18 nM

SMILES: O=C1CCC(n2ncc(N3CCC(CCN4CCC(CC(=O)N[C@H]5CC[C@@H](Nc6ncnc7[nH]cc(C(=O)c8ccc(Oc9ccccc9)cc8Cl)c67)CC5)CC4)CC3)c(Cl)c2=O)C(=O)N1 (stereo partly drawn)
Activity [1]: 64%
Activity [2]: 88%
Activity [3]: 91%

SMILES: O=C1CCC(c2ccc(N3CCC(CCN4CCN(CC(=O)N[C@H]5CC[C@@H](Nc6ncnc7[nH]cc(C(=O)c8ccc(Oc9ccccc9)cc8)c67)CC5)CC4)CC3)cc2)C(=O)N1 (stereo partly drawn)
Activity [1]: 15%
Activity [2]: 36%
Activity [3]: 53%

SMILES: O=C(c1ccc(Oc2ccccc2)cc1Cl)c1c[nH]c2ncnc(N[C@@H]3CC[C@@H](CO)OC3)c12 [NEMTABRUTINIB]
IC50 [11]: 335 nM
IC50 [12]: 594 nM

SMILES: O=C1CCC(c2ccc(N3CCC(CN4CCC(CC(=O)N[C@H]5CC[C@@H](Nc6ncnc7[nH]cc(C(=O)c8ccc(Oc9ccccc9)cc8)c67)CC5)CC4)CC3)cc2)C(=O)N1 (stereo partly drawn)
Activity [1]: 50%
Activity [2]: 51%
Activity [3]: 74%

SMILES: O=C1CCN(c2cccc(C(=O)N3CCC(CCN4CCC(CC(=O)N[C@H]5CC[C@@H](Nc6ncnc7[nH]cc(C(=O)c8ccc(Oc9ccccc9)cc8Cl)c67)CC5)CC4)CC3)c2)C(=O)N1
Activity [3]: 24%

SMILES: CN1C(=O)CCC(c2ccc(N3CCC(CCN4CCC(CC(=O)N[C@H]5CC[C@H](Nc6ncnc7[nH]cc(C(=O)c8ccc(Oc9ccccc9)cc8)c67)C5)CC4)CC3)cc2)C1=O (stereo partly drawn)
Activity [10]: inactive

SMILES: O=C1CCC(c2ccc(N3CCC(CN4CCC(CC(=O)N[C@H]5CC[C@H](Nc6ncnc7[nH]cc(C(=O)c8ccc(Oc9ccccc9)cc8)c67)C5)CC4)CC3)nc2)C(=O)N1 (stereo partly drawn)
Activity [1]: 84%
Activity [2]: 91%
Activity [3]: 93%
DC50 [4]: 3.1 nM
half-life [5]: 68 min
microsomal CLint [6]: 20.3 µL/min/mg
CLint scaled [7]: 18.2 mL/min/kg
remaining at 1 h [8]: 53.9%
remaining at 1 h [9]: 94.6%

SMILES: O=C1CCC(c2ccc(N3CCC(CCN4CCC(CCN[C@H]5CC[C@@H](Nc6ncnc7[nH]cc(C(=O)c8ccc(Oc9ccccc9)cc8)c67)CC5)CC4)CC3)cc2)C(=O)N1 (stereo partly drawn)
Activity [2]: 15%
Activity [3]: 39%

The next lines start with results.

Activity [1]: 69%
Activity [2]: 85%
Activity [3]: 88%
DC50 [4]: 3.6 nM
half-life [5]: 88 min
microsomal CLint [6]: 15.8 µL/min/mg
CLint scaled [7]: 14.2 mL/min/kg
remaining at 1 h [8]: 55.6%
remaining at 1 h [9]: 96.8%
SMILES: O=C1CCC(c2ccc(N3CCC(CN4CCC(CC(=O)N[C@H]5CC[C@H](Nc6ncnc7[nH]cc(C(=O)c8ccc(Oc9ccccc9)cc8)c67)C5)CC4)CC3)cc2)C(=O)N1 (stereo partly drawn)

Activity [1]: 4%
Activity [2]: 54%
Activity [3]: 73%
SMILES: O=C1CCC(NC(=O)c2ccc(N3CCC(CCN4CCC(CC(=O)N[C@H]5CC[C@@H](Nc6ncnc7[nH]cc(C(=O)c8ccc(Oc9ccccc9)cc8Cl)c67)CC5)CC4)CC3)cn2)C(=O)N1 (stereo partly drawn)

Activity [1]: 45%
Activity [2]: 62%
Activity [3]: 77%
SMILES: O=C1CCC(c2cccc(N3CCC(CCN4CCC(CC(=O)N[C@H]5CC[C@@H](Nc6ncnc7[nH]cc(C(=O)c8ccc(Oc9ccccc9)cc8Cl)c67)CC5)CC4)CC3)c2)C(=O)N1 (stereo partly drawn)

Activity [2]: 9%
Activity [3]: 35%
SMILES: O=C1CCN(c2ccc(C(=O)N3CCC(CCN4CCC(CC(=O)N[C@H]5CC[C@@H](Nc6ncnc7[nH]cc(C(=O)c8ccc(Oc9ccccc9)cc8Cl)c67)CC5)CC4)CC3)cc2)C(=O)N1

Activity [1]: 79%
Activity [2]: 85%
Activity [3]: 89%
SMILES: O=C1CCC(c2ccc(N3CCC(CCN4CCC(CC(=O)N[C@H]5CC[C@@H](Nc6ncnc7[nH]cc(C(=O)c8ccc(Oc9ccccc9)cc8Cl)c67)CC5)CC4)CC3)cc2)C(=O)N1 (stereo partly drawn)

Activity [10]: inactive
SMILES: CN1C(=O)CCC(c2ccc(N3CCC(CCN4CCC(CC(=O)N[C@H]5CC[C@H](Nc6ncnc7[nH]cc(C(=O)c8ccc(Oc9ccccc9)cc8)c67)C5)CC4)CC3)nc2)C1=O (stereo partly drawn)

Activity [1]: 80%
Activity [2]: 98%
Activity [3]: 98%
SMILES: O=C1CCC(N2Cc3cc(N4CCC(CCN5CCC(CC(=O)N[C@H]6CC[C@H](Nc7ncnc8[nH]cc(C(=O)c9ccc(Oc%10ccccc%10)cc9Cl)c78)CC6)CC5)CC4)c(F)cc3C2=O)C(=O)N1 (stereo partly drawn)

Activity [1]: 18%
Activity [2]: 32%
Activity [3]: 36%
SMILES: O=C1CCC(N2Cc3cc(N4CCC(CCN5CCC(CC(=O)N[C@H]6CC[C@@H](Nc7ncnc8[nH]cc(C(=O)c9ccccc9Cl)c78)CC6)CC5)CC4)c(F)cc3C2=O)C(=O)N1 (stereo partly drawn)

Activity [1]: 26%
Activity [2]: 60%
Activity [3]: 81%
SMILES: Cc1ccc(C(=O)N2CCC(CCN3CCC(CC(=O)N[C@H]4CC[C@@H](Nc5ncnc6[nH]cc(C(=O)c7ccc(Oc8ccccc8)cc7Cl)c56)CC4)CC3)CC2)cc1N1CCC(=O)NC1=O

Activity [2]: 4%
Activity [3]: 23%
SMILES: O=C1CCC(c2ccc(N3CC4(CCN(CC(=O)N[C@H]5CC[C@@H](Nc6ncnc7[nH]cc(C(=O)c8ccc(Oc9ccccc9)cc8)c67)CC5)CC4)C3)cc2)C(=O)N1 (stereo partly drawn)

Activity [1]: 83%
Activity [2]: 92%
Activity [3]: 89%
SMILES: O=C1CCC(N2Cc3cc(N4CCC(CCN5CCC(CC(=O)N[C@H]6CC[C@@H](Nc7ncnc8[nH]cc(C(=O)c9ccc(Oc%10ccccc%10)cc9Cl)c78)CC6)CC5)CC4)c(F)cc3C2=O)C(=O)N1 (stereo partly drawn)
IC50 [11]: 23.9 nM
IC50 [12]: 27.4 nM

Activity [1]: 41%
Activity [2]: 46%
Activity [3]: 54%
SMILES: O=C1CCC(N2Cc3cc(N4CCC(CCN5CCC(CC(=O)N[C@@H]6CCC[C@H](Nc7ncnc8[nH]cc(C(=O)c9ccc(Oc%10ccccc%10)cc9Cl)c78)C6)CC5)CC4)c(F)cc3C2=O)C(=O)N1 (stereo partly drawn)

Activity [1]: 4%
Activity [2]: 11%
Activity [3]: 6%
SMILES: O=C1CCC(c2ccc(N3CCC(CN4CCC(CC(=O)N[C@H]5CC[C@@H](Nc6ncnc7[nH]cc(C(=O)c8ccc(Oc9ccccc9)cc8)c67)CC5)CC4)C3)cc2)C(=O)N1 (stereo partly drawn)

Activity [1]: 69%
Activity [2]: 79%
Activity [3]: 69%
SMILES: O=C1CCC(c2ccc(N3CCC(CCN4CCC(CC(=O)N[C@H]5CC[C@@H](Nc6ncnc7[nH]cc(C(=O)c8ccc(Oc9ccccc9)cc8)c67)CC5)CC4)CC3)cc2)C(=O)N1 (stereo partly drawn)

Activity [1]: 56%
Activity [2]: 76%
Activity [3]: 88%
SMILES: O=C1CCC(N2Cc3cc(N4CCC(CCN5CCC(CC(=O)NC6CCN(c7ncnc8[nH]cc(C(=O)c9ccc(Oc%10ccccc%10)cc9Cl)c78)CC6)CC5)CC4)c(F)cc3C2=O)C(=O)N1 (stereo not drawn)

Activity [1]: 88%
Activity [2]: 94%
Activity [3]: 98%
SMILES: O=C1CCC(N2Cc3cc(N4CCC(CCN5CCC(CC(=O)N[C@H]6CC[C@H](Nc7ncnc8[nH]cc(C(=O)c9ccc(Oc%10ccccc%10)cc9Cl)c78)C6)CC5)CC4)c(F)cc3C2=O)C(=O)N1 (stereo partly drawn)
